The record followed here is patent publication US12398120B2, “Substituted hydantoinamides as ADAMTS7 antagonists” (BAYER AKTIENGESELLSCHAFT, priority 2019, dated 2025).

SMILES strings stand for the structures.

Chain of ADAMTS4 (O75173 213-685): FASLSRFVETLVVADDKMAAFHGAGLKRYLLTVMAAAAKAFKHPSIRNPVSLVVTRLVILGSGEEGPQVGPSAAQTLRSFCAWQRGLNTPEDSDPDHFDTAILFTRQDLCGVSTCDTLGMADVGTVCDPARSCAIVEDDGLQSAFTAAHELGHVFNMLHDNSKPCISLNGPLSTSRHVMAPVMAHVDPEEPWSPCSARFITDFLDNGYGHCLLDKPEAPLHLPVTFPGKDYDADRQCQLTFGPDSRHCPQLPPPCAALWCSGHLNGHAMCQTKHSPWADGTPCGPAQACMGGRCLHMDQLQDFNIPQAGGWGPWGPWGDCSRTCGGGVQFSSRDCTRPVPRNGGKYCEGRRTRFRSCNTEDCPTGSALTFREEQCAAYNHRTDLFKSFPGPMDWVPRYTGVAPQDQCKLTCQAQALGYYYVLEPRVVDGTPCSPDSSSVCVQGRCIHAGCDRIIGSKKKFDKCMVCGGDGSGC

The target of one experiment is ADAMTS4 (Homo sapiens (Human), UniProt O75173). Kind of experiment: Selectivity assay for ADAMTS-7 modulators: ADAMTS4 (FRET substrate). The format is biochemical. Conditions: ADAMTS4 (R&D 4307-AD) 50 nM, substrate Dabcyl-EEVKAKVQPY-Glu(Edans)-NH2 1 μM, 120 min, 32° C. The procedure, abridged:
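Human ADAMTS4 with compound in DMSO, or DMSO control; reaction started by adding FRET substrate in reaction buffer. Fluorescence increase measured at substrate-specific wavelengths. IC50 derived from % inhibition of enzyme activity versus compound concentration.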
As to `Cn1nccc1C1(CNC(=O)c2c(F)cccc2-c2ccc(Cl)cc2)NC(=O)NC1=O` (single isomer, unassigned; ent-4) [Example 312, Ent-4′-Chloro-3-Fluoro-N-{[4-(1-Methyl-1H-Pyrazol-5-Yl)-2,5-Dioxoimidazolidin-4-Yl]Methyl}[Biphenyl]-2-Carboxamide], 20 µM corresponded to half-maximal inhibition (IC50).
For `Cc1cnoc1C1(CNC(=O)c2ccccc2-c2ccc(C(F)(F)F)cc2)NC(=O)NC1=O` (stereo not drawn) [Example 88, Ent-N-{[4-(4-Methyl-1,2-Oxazol-5-Yl)-2,5-Dioxoimidazolidin-4-Yl]Methyl}-4′-(Trifluoromethyl)[Biphenyl]-2-Carboxamide], the half-maximal inhibitory concentration (IC50) – broadly, the concentration that inhibits the measured activity by half – was determined as 9.1 µM.
Same read-out and setting: for `Cc1ccc(-c2ccc(F)cc2C(=O)NCC2(c3nccn3C)NC(=O)NC2=O)cc1` (single isomer, unassigned; ent-4) [Example 152, Ent-4-Fluoro-4′-Methyl-N-{[4-(1-Methyl-1H-Imidazol-2-Yl)-2,5-Dioxoimidazolidin-4-Yl]Methyl}[Biphenyl]-2-Carboxamide] the value was 0.705 µM.
Turning to `Cc1c(C2(CNC(=O)c3ccccc3-c3ccc(C(F)(F)F)cc3)NC(=O)NC2=O)cnn1C` (racemic) [Example 14, Rac-N-{[4-(1,5-Dimethyl-1H-Pyrazol-4-Yl)-2,5-Dioxoimidazolidin-4-Yl]Methyl}-4′-(Trifluoromethyl)[Biphenyl]-2-Carboxamide], the 50% inhibitory concentration (IC50) was determined as 17 µM.
The same measure, in the same setting: for `Cc1nocc1C1(CNC(=O)c2ccccc2-c2ccc(C(F)(F)F)cc2)NC(=O)NC1=O` (stereo not drawn) [Example 68, Ent-N-{[4-(3-Methyl-1,2-Oxazol-4-Yl)-2,5-Dioxoimidazolidin-4-Yl]Methyl}-4′-(Trifluoromethyl)[Biphenyl]-2-Carboxamide] the value was 11 µM; for `Cc1cn(C)nc1C1(CNC(=O)c2ccccc2-c2ccc(C(F)(F)F)cc2)NC(=O)NC1=O` (racemic) [Example 39, Rac-N-{[4-(1,4-Dimethyl-1H-Pyrazol-3-Yl)-2,5-Dioxoimidazolidin-4-Yl]Methyl}-4′-(Trifluoromethyl)[Biphenyl]-2-Carboxamide], 10 µM.
Still for that read-out and setting: in the case of `Cc1sc(C(F)(F)F)nc1C1(CNC(=O)c2ccc(F)cc2-c2ccc(C(F)(F)F)cc2)NC(=O)NC1=O` (racemic) [Example 303, Rac-5-Fluoro-N-({4-[5-Methyl-2-(Trifluoromethyl)-1,3-Thiazol-4-Yl]-2,5-Dioxoimidazolidin-4-Yl}Methyl)-4′-(Trifluoromethyl)[Biphenyl]-2-Carboxamide] it was 38 µM; in that of `O=C1NC(=O)[C@](CNC(=O)c2ccc(F)c(F)c2-c2ccc(C(F)(F)F)nc2)(C2CC2)N1` [Example 76, N-{[(4R)-4-Cyclopropyl-2,5-Dioxoimidazolidin-4-Yl]Methyl}-3,4-Difluoro-2-[6-(Trifluoromethyl)Pyridin-3-Yl]Benzamide], 14 µM; in that of `CC(C)(C)c1ccc(-c2ccccc2C(=O)NC[C@@]2(C3CC3)NC(=O)NC2=O)cc1` [Example 113, 4′-Tert-Butyl-N-{[(4R)-4-Cyclopropyl-2,5-Dioxoimidazolidin-4-Yl]Methyl}[Biphenyl]-2-Carboxamide], 12 µM.
Still for that read-out and setting: in the case of `Cn1nccc1C1(CNC(=O)c2ccc(F)cc2-c2ccc(C(F)(F)F)cc2)NC(=O)NC1=O` (racemic) [Example 183, Rac-5-Fluoro-N-{[4-(1-Methyl-1H-Pyrazol-5-Yl)-2,5-Dioxoimidazolidin-4-Yl]Methyl}-4′-(Trifluoromethyl)[Biphenyl]-2-Carboxamide] it was 19 µM.
With `O=C1NC(=O)C(CNC(=O)c2ccccc2-c2ccc(C(F)(F)F)cc2)(C2CCC2)N1` (stereo not drawn) [Example 237, Ent-N-[(4-Cyclobutyl-2,5-Dioxoimidazolidin-4-Yl)Methyl]-4′-(Trifluoromethyl)[Biphenyl]-2-Carboxamide], the half-maximal inhibitory concentration (IC50) is > 50 µM.
`O=C1NC(=O)C(CNC(=O)c2ccc(F)cc2-c2ccc(C(F)(F)F)cc2)(c2ncsc2C2CC2)N1` (stereo not drawn) [Example 273, Ent-N-{[4-(5-Cyclopropyl-1,3-Thiazol-4-Yl)-2,5-Dioxoimidazolidin-4-Yl]Methyl}-5-Fluoro-4′-(Trifluoromethyl)[Biphenyl]-2-Carboxamide] showed a half-maximal inhibitory concentration (IC50) of 26.8 µM.
On the same count and under the same terms, for `Cc1nonc1C1(CNC(=O)c2ccccc2-c2ccc(C(F)(F)F)cc2)NC(=O)NC1=O` (racemic) [Example 32, Rac-N-{[4-(4-Methyl-1,2,5-Oxadiazol-3-Yl)-2,5-Dioxoimidazolidin-4-Yl]Methyl}-4′-(Trifluoromethyl)[Biphenyl]-2-Carboxamide] the value was 35 µM; for `Cc1ccc(C(=O)NCC2(c3nccn3C)NC(=O)NC2=O)c(-c2ccc(C(F)(F)F)cc2)c1C` (single isomer, unassigned; ent-5) [Example 287, Ent-5,6-Dimethyl-N-{[4-(1-Methyl-1H-Imidazol-2-Yl)-2,5-Dioxoimidazolidin-4-Yl]Methyl}-4′-(Trifluoromethyl)[Biphenyl]-2-Carboxamide], 0.16 µM; for `O=C1NC(=O)C(CNC(=O)c2ccccc2-c2ccc(C(F)(F)F)cc2)(c2ncccc2C(F)(F)F)N1` (racemic) [Example 243, Rac-N-({2,5-Dioxo-4-[3-(Trifluoromethyl)Pyridin-2-Yl]Imidazolidin-4-Yl}Methyl)-4′-(Trifluoromethyl)[Biphenyl]-2-Carboxamide], 45 µM.
On the same count and under the same terms, for `O=C1NC(=O)C(CNC(=O)c2ccc(F)cc2-c2ccc(C(F)(F)F)cc2)(c2ccnn2C(F)F)N1` (racemic) [Example 262, Rac-N-({4-[1-(Difluoromethyl)-1H-Pyrazol-5-Yl]-2,5-Dioxoimidazolidin-4-Yl}Methyl)-5-Fluoro-4′-(Trifluoromethyl)[Biphenyl]-2-Carboxamide] the value was 19 µM; for `O=C1NC(=O)C(CNC(=O)c2ccc(F)cc2-c2ccc(C(F)(F)F)cc2)(C23CC(F)(C2)C3)N1` (racemic) [Example 293, Rac-5-Fluoro-N-{[4-(3-Fluorobicyclo[1.1.1]Pentan-1-Yl)-2,5-Dioxoimidazolidin-4-Yl]Methyl}-4′-(Trifluoromethyl)[Biphenyl]-2-Carboxamide], > 50 µM.
For the compound `Cc1ncsc1C1(CNC(=O)c2ccc(Cl)cc2-c2ccc(C(F)(F)F)cc2)NC(=O)NC1=O` (single isomer, unassigned; ent-5) [Example 7, Ent-5-Chloro-N-{[4-(4-Methyl-1,3-Thiazol-5-Yl)-2,5-Dioxoimidazolidin-4-Yl]Methyl}-4′-(Trifluoromethyl)[Biphenyl]-2-Carboxamide], it took 3.7 µM to reach half-maximal inhibition (IC50).
On the same count and under the same terms, in the case of `Cc1cnoc1C1(CNC(=O)c2ccccc2-c2ccc(C(F)(F)F)nc2)NC(=O)NC1=O` (stereo not drawn) [Example 78, Ent-N-{[4-(4-Methyl-1,2-Oxazol-5-Yl)-2,5-Dioxoimidazolidin-4-Yl]Methyl}-2-[6-(Trifluoromethyl)Pyridin-3-Yl]Benzamide] it was 14 µM; in that of `O=C1NC(=O)C(CNC(=O)c2ccccc2-c2ccc(C(F)(F)F)cc2)(C2(Cl)CC2)N1` (racemic) [Example 279, Rac-N-{[4-(1-Chlorocyclopropyl)-2,5-Dioxoimidazolidin-4-Yl]Methyl}-4′-(Trifluoromethyl)[Biphenyl]-2-Carboxamide], 13 µM; in that of `CC1CCC1C1(CNC(=O)c2ccccc2-c2ccc(C(F)(F)F)cc2)NC(=O)NC1=O` (stereo not drawn) [Example 26, Ent-N-{[4-(2-Methylcyclobutyl)-2,5-Dioxoimidazolidin-4-Yl]Methyl}-4′-(Trifluoromethyl)[Biphenyl]-2-Carboxamide], > 50 µM.
The same measure, in the same setting: in the case of `O=C1NC(=O)C(CNC(=O)c2ccccc2-c2ccc(C(F)(F)F)nc2)(c2ccnn2C2CC2)N1` (racemic) [Example 40, Rac-N-{[4-(1-Cyclopropyl-1H-Pyrazol-5-Yl)-2,5-Dioxoimidazolidin-4-Yl]Methyl}-2-[6-(Trifluoromethyl)Pyridin-3-Yl]Benzamide] it was 21 µM; in that of `Cc1cn(C)nc1C1(CNC(=O)c2ccccc2-c2ccc(C(F)(F)F)cc2)NC(=O)NC1=O` (stereo not drawn) [Example 70, Ent-N-{[4-(1,4-Dimethyl-1H-Pyrazol-3-Yl)-2,5-Dioxoimidazolidin-4-Yl]Methyl}-4′-(Trifluoromethyl)[Biphenyl]-2-Carboxamide], 4.5 µM; in that of `Cc1ccc(-c2c(C)cccc2C(=O)NC[C@@]2(C3CC3)NC(=O)NC2=O)cc1` [Example 101, N-{[(4R)-4-Cyclopropyl-2,5-Dioxoimidazolidin-4-Yl]Methyl}-4′,6-Dimethyl[Biphenyl]-2-Carboxamide], 3.2 µM.
On to `O=C1NC(=O)C(CNC(=O)c2ccccc2-c2ccc(C(F)(F)F)cc2)(C2CC(F)(F)C2)N1` (stereo not drawn) [Example 248, Ent-N-{[4-(3,3-Difluorocyclobutyl)-2,5-Dioxoimidazolidin-4-Yl]Methyl}-4′-(Trifluoromethyl)[Biphenyl]-2-Carboxamide], for which the IC50 is > 50 µM.
Still for that read-out and setting: for `Cc1scnc1C1(CNC(=O)c2ccccc2-c2ccc(C(F)(F)F)cc2)NC(=O)NC1=O` (racemic) [Example 1, Rac-N-{[4-(5-Methyl-1,3-Thiazol-4-Yl)-2,5-Dioxoimidazolidin-4-Yl]Methyl}-4′-(Trifluoromethyl)[Biphenyl]-2-Carboxamide] the value was 6.5 µM; for `Cn1cncc1C1(CNC(=O)c2ccccc2-c2ccc(C(F)(F)F)nc2)NC(=O)NC1=O` (racemic) [Example 285, Rac-N-{[4-(1-Methyl-1H-Imidazol-5-Yl)-2,5-Dioxoimidazolidin-4-Yl]Methyl}-2-[6-(Trifluoromethyl)Pyridin-3-Yl]Benzamide], 6.6 µM.

The same experiment, now with this note: ADAMTS4 (R&D 4307-AD) 50 nM, substrate Dabcyl-[…]-Glu(Edans)-NH2 1 μM, 120 min, 32° C.
Consider `Cc1scnc1C1(CNC(=O)c2ccc(F)cc2-c2ccc(C(F)(F)F)cc2)NC(=O)NC1=O` (single isomer, unassigned; ent-5) [Example 176, Ent-5-Fluoro-N-{[4-(5-Methyl-1,3-Thiazol-4-Yl)-2,5-Dioxoimidazolidin-4-Yl]Methyl}-4′-(Trifluoromethyl)[Biphenyl]-2-Carboxamide], for which 4.13 µM corresponded to half-maximal inhibition (IC50).
